Measurements published in patent US8691761B2, “Somatostatin receptor 2 antagonists” (priority 2006, dated 2014).
“And” between values parts separate entries of the source, which are not always exact repeats. Equal values may be shown once. “Also recorded” adds a separate entry of the source. Read-outs that look alike come from different tables or passages of the source. Bridge positions count the residues as written; N and C are the ends. Square brackets hold non-standard residues; d marks the D form. Peptide text beside a SMILES is read from it. * marks the point of attachment. ξ: configuration not given here. DOTA = O=C(O)CN1CCN(CC(=O)O)CCN(CC(=O)*)CCN(CC(=O)O)CC1; Phe(4-NO2) = N[C@@H](Cc1ccc([N+](=O)[O-])cc1)C(=O)O; dPhe(4-NHCONH2) = NC(=O)Nc1ccc(C[C@@H](N)C(=O)O)cc1; Phe(4-Cl) = N[C@@H](Cc1ccc(Cl)cc1)C(=O)O; ξDihydroorotoyl = O=C1CC(C(=O)*)NC(=O)N1; 2Nal = N[C@@H](Cc1ccc2ccccc2c1)C(=O)O; ξPhe(4-NH2) = Nc1ccc(CC(N)C(=O)O)cc1

Assays:
[1] = biological target: T1, human sst2A receptor (Homo sapiens, UniProt P30874); experiment: Immunofluorescence-based sst2 internalization assay in HEK-sst2 cells; format: cell-based; conditions: n ≧ 2
T1 construct: expressed in transfected cells; host or cells: HEK293 (HEK-sst2)
Experimental: Immunofluorescence-based sst2 Internalization Assay. Immunofluorescence microscopy-based internalization assay for sst2 was performed with HEK-sst2 using the sst2-specific antibody R2-88 as described elsewhere herein. HEK-sst2 cells were treated either with vehicle alone, the sst2 agonist [Tyr^3]-octreotide at a concentration of 100 nM, [Tyr^3]-octreotide at a concentration of 100 nM in the presence of an excess of the SRIF analogues to be tested (100 times the concentration of [Tyr^3]-octreotide), or with the SRIF analogues to be tested alone at a concentration of 10 μM, and then processed for immunofluorescence microscopy as described previously.

[2] = biological target: sst2 (Homo sapiens, UniProt P30874); experiment: Calcium release assay in HEK-sst2 cells (Fluo-4NW); format: cell-based; design: expressed in transfected cells; host or cells: HEK293 (HEK-sst2); conditions: n ≧ 2
Experimental: Calcium release assay. Intracellular calcium release was measured in HEK-sst2 using the Fluo-4NW Calcium Assay kit as described previously (Magrys, et al. “The role of anti-alpha-enolase autoantibodies in pathogenicity of autoimmune-mediated retinopathy.” J. Clin. Immunol. 2007, 27, 181-192; Michel et al. “The Nef protein of human immunodeficiency virus is a broad-spectrum modulator of chemokine receptor cell surface levels that acts independently of classical motifs for receptor endocytosis and Galphai signaling.” Mol. Biol. Cell. 2006, 17, 3578-3590). In brief, HEK-sst2 cells were seeded (25,000 cells per well) in poly-D-lysine (20 μg/mL) coated 96 well plates and cultured for 1 day at 37° C. and 5% CO2 in culture medium. At the day of the experiment, the cells were washed with assay buffer (1×HBSS, 20 mM HEPES) containing 2.5 mM probenecid, and then loaded with 100 μL/well Fluo-4NW dye in assay buffer containing 2.5 mM probenecid for 30 min at 37° C. and 5% CO2 and then for further 30 min at room temperature. To measure the intracellular calcium mobilization after stimulation with the SRIF analogues to be tested, the dye-loaded cells were transferred to a SpectraMax M2^e (Molecular Devices, Sunnyvale, Calif.). Intracellular calcium mobilization was recorded in a kinetic for 60 sec at room temperature monitoring fluorescence emission at 520 nm (with λex=485 nm) in the presence of the analogues at the concentrations indicated. Maximum fluorescence (Fmax) was measured after the addition of 25 μM ionomycin. Baseline (control) measurements were taken for dye-loaded, untreated cells. Data are shown as percentage of Fmax (% Fmax) as reported previously. (Magrys, et al. J. Clin. Immunol. 2007, 27, 181-192; Michel et al. Mol. Biol. Cell. 2006, 17, 3578-3590). All experiments were repeated at least three times in triplicate.

[3] = tested on: HEK-sst2 tumors; experiment: In vivo biodistribution of radiolabeled peptides in nude mice bearing HEK-sst2 tumors; conditions: mouse, in vivo
Experimental: (§1) The following protocol was used to determine biodistribution
(§2) Confirmation that the transfected tumors were indeed expressing solely sst2 was obtained in resected tumor samples tested in vitro with somatostatin receptor autoradiography using subtype selective ligands.
(§3) The biodistribution of was studied at 4 h or 24 h after injection. The organs of interest were collected, blotted dry, weighed, their radioactivity measured and the percentage of injected activity per gram (% IA/g) calculated.

[4] = in vivo; conditions: female, athymic nude, mouse, iv, total radioactivity, biodistribution
Experimental: as §1, §2, §3

[5] = tested on: HEK-sst2 tumors; conditions: mouse, in vivo
Experimental: as §1, §2, §3

[6] = biological target: T2, hSSTR2 (Homo sapiens, UniProt P30874); experiment: Receptor autoradiography, displacement of 125I-[Leu8,D-Trp22,Tyr25]-SRIF-28 from membrane pellet sections; format: binding
T2 construct: expressed in transfected cells; host or cells: CHO-K1 or CCL39 cells

[7] = biological target: T3, hSSTR4 (Homo sapiens, UniProt P31391); experiment: as above; format: binding
T3 construct: expressed in transfected cells; host or cells: CHO-K1 or CCL39 cells

[8] = biological target: T4, hSSTR3 (Homo sapiens, UniProt P32745); experiment: as above; format: binding
T4 construct: expressed in transfected cells; host or cells: CHO-K1 or CCL39 cells

[9] = biological target: T5, hSSTR5 (Homo sapiens, UniProt P35346); experiment: as above; format: binding
T5 construct: expressed in transfected cells; host or cells: CHO-K1 or CCL39 cells

[10] = biological target: T6, hSSTR1 (Homo sapiens, UniProt P30872); experiment: as above; format: binding
T6 construct: expressed in transfected cells; host or cells: CHO-K1 or CCL39 cells
T6 sequence (P30872 whole entry): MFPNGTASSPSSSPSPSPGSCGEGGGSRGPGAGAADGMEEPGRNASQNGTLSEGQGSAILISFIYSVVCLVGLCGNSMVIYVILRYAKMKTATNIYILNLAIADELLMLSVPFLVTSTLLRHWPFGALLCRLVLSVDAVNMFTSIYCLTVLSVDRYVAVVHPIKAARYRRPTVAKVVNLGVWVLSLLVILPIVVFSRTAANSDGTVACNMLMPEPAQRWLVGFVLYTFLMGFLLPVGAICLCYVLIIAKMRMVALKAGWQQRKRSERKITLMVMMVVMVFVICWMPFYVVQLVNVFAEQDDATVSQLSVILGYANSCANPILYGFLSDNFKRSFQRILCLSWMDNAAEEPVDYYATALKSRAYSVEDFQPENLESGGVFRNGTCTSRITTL

T2 sequence (P30874 whole entry): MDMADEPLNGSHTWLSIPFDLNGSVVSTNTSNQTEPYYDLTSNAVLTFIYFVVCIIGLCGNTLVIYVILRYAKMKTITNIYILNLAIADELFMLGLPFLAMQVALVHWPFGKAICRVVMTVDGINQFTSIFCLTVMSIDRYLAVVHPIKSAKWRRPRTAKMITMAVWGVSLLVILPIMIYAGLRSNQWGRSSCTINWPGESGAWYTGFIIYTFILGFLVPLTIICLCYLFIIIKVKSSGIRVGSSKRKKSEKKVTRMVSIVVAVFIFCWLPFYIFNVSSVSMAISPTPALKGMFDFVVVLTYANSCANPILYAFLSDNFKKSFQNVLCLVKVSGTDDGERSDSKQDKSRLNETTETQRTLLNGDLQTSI
T1 sequence (P30874 whole entry): as above
T5 sequence (P35346 whole entry): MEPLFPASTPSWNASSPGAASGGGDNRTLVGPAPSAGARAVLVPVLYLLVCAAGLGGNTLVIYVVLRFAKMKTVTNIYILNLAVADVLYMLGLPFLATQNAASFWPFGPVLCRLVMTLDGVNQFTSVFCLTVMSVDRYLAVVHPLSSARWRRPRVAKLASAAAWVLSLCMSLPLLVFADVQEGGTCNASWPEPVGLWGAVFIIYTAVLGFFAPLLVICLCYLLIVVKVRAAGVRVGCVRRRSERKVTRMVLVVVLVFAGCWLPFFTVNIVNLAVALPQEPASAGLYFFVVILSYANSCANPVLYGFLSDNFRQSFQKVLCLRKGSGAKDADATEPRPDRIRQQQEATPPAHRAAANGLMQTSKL
T3 sequence (P31391 whole entry): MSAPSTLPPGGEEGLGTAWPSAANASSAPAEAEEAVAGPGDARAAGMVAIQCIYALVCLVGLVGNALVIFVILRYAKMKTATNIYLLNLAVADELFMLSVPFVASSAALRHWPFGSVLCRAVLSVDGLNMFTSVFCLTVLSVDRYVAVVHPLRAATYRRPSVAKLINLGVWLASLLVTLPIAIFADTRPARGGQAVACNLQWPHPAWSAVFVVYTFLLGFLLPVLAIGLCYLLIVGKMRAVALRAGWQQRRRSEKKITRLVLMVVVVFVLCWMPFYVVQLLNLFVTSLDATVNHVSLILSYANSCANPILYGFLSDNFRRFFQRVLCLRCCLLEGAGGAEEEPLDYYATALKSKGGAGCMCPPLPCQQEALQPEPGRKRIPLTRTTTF
Chain of sst2 (P30874 whole entry): as the sequence (P30874 whole entry) above
T4 sequence (P32745 whole entry): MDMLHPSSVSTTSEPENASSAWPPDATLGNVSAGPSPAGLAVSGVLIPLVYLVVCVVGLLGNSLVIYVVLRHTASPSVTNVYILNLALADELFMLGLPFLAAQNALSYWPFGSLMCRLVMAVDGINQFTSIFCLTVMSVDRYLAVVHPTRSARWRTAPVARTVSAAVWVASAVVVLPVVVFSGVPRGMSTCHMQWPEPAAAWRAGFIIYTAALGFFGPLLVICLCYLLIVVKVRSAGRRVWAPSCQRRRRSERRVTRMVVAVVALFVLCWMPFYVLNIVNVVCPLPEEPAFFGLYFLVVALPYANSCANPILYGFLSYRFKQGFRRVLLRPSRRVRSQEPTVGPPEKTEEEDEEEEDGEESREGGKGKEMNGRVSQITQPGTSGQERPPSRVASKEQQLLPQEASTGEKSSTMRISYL

For `C[C@@H](O)[C@@H]1NC(=O)[C@H](CCCCN)NC(=O)[C@@H](Cc2ccc(NC(N)=O)cc2)NC(=O)C(Cc2ccc(NC(=O)C3CC(=O)NC(=O)N3)cc2)NC(=O)[C@H](NC(=O)[C@H](Cc2ccc(Cl)cc2)NC(=O)CN2CCN(CC(=O)O)CCN(CC(=O)O)CCN(CC(=O)O)CC2)CSSC[C@@H](C(=O)N[C@@H](Cc2ccc3ccccc3c2)C(N)=O)NC1=O` (stereo partly drawn) [Peptide No. 30, DOTA-Cpa-c[DCys-Aph(Hor)-DAph(Cbm)-Lys-Thr-Cys]-2Nal-NH2] ({DOTA}-[Phe(4-Cl)][dC][ξPhe(4-NH2)](ξDihydroorotoyl)[dPhe(4-NHCONH2)]KTC[2Nal]-NH2; disulfide 2-7), the “sst2-internalization tested in vitro in HEK-sst2 cells (function)” value [1] was “Antagonist”, the “Calcium release tested in vitro in HEK-sst2 cells (function)” value [2] was “Antagonist” and the “tumor to kidney ratio (in words)” value [3] was “excellent tumor to kidney ratio”.

`C[C@@H](O)[C@@H]1NC(=O)[C@H](CCCCN)NC(=O)[C@@H](Cc2ccc(NC(N)=O)cc2)NC(=O)[C@H](Cc2ccc(O)cc2)NC(=O)[C@H](NC(=O)[C@H](Cc2ccc(Cl)cc2)NC(=O)CN2CCN(CC(=O)O)CCN(CC(=O)O)CCN(CC(=O)O)CC2)CSSC[C@@H](C(=O)N[C@@H](Cc2ccc3ccccc3c2)C(N)=O)NC1=O` [^111In-labelled Peptide No. 28, metal not drawn] ({DOTA}-[Phe(4-Cl)][dC]Y[dPhe(4-NHCONH2)]KTC[2Nal]-NH2; disulfide 2-7) showed a tissue uptake at 4 h ([4]; adrenal) of 0.21 %ID/g, a tissue uptake at 4 h ([4]; blood) of 0.19 %ID/g and a tissue uptake at 4 h ([4]; bone) of 0.16 %ID/g. For the same compound, the tissue uptake at 4 h ([4]; heart) was 0.12 %ID/g, the tissue uptake at 4 h ([4]; liver) was 0.88 %ID/g and the tissue uptake at 4 h ([4]; muscle) was 0.06 %ID/g. For the same compound, the tissue uptake at 4 h ([4]; pancreas) was 2.41 %ID/g, the tissue uptake at 4 h ([4]; pituitary) was 0.21 %ID/g and the tissue uptake at 4 h ([4]; sst2 tumor) was 2.36 %ID/g. For the same compound, the “biodistribution, kidney” value ([5]; female, athymic nude, iv, 4 h) was 6.95 % IA/g and the “biodistribution, spleen” value ([5]; female, athymic nude, iv, 4 h) was 0.36 % IA/g.

For `C[C@@H](O)[C@@H]1NC(=O)[C@H](CCCCN)NC(=O)[C@@H](Cc2ccc(NC(N)=O)cc2)NC(=O)[C@H](Cc2ccc(O)cc2)NC(=O)[C@H](NC(=O)[C@H](Cc2ccc([N+](=O)[O-])cc2)NC(=O)CN2CCN(CC(=O)O)CCN(CC(=O)O)CCN(CC(=O)O)CC2)CSSC[C@@H](C(=O)N[C@H](Cc2ccc(O)cc2)C(N)=O)NC1=O` [Peptide No. 3, DOTA-pNO2Phe-c[DCys-Tyr-DAph(Cbm)-Lys-Thr-Cys]-DTyr-NH2] ({DOTA}-[Phe(4-NO2)][dC]Y[dPhe(4-NHCONH2)]KTC[dY]-NH2; disulfide 2-7), the “sst2-internalization tested in vitro in HEK-sst2 cells (function)” value [1] was “antagonistic property; also recorded: Antagonist”, the “Calcium release tested in vitro in HEK-sst2 cells (function)” value [2] was “Antagonist” and the “tumor to kidney ratio (in words)” value [5] was “excellent tumor to kidney ratio”. For the same compound, the “sst2 binding affinity relative to SRIF-28” value [6] was “three to four-fold greater”, the IC50 ([6]; Table 1, inhibition of radioligand binding to cloned human receptor, read-out: IC50 hSSTR2) was 0.53 ± 0.06 nM and the IC50 ([6]; Table 3, mean ± SEM when N ≧ 3, read-out: sst2 binding affinity (IC50)) was 0.75 nM and < 1 nM. The IC50 ([7]; Table 1, inhibition of radioligand binding to cloned human receptor, read-out: IC50 hSSTR4) was greater than 1000 nM, the IC50 ([7]; Table 3, mean ± SEM when N ≧ 3, read-out: sst4 binding affinity (IC50)) was greater than 1000 nM and the IC50 ([8]; Table 1, inhibition of radioligand binding to cloned human receptor, read-out: IC50 hSSTR3) was greater than 1000 nM. It also gave an IC50 ([8]; Table 3, mean ± SEM when N ≧ 3, read-out: sst3 binding affinity (IC50)) greater than 1000 nM, an IC50 ([9]; Table 1, inhibition of radioligand binding to cloned human receptor, read-out: IC50 hSSTR5) greater than 1000 nM and an IC50 ([9]; Table 3, mean ± SEM when N ≧ 3, read-out: sst5 binding affinity (IC50)) greater than 1000 nM. For the same compound, the IC50 ([10]; Table 1, inhibition of radioligand binding to cloned human receptor, read-out: IC50 hSSTR1) was greater than 1000 nM and the IC50 ([10]; Table 3, mean ± SEM when N ≧ 3, read-out: sst1 binding affinity (IC50)) was greater than 1000 nM.
